{"source": "patent US20240350521A1", "about": "“COMPOSITIONS AND METHODS FOR PREVENTING OR TREATING PRECOCIOUS PUBERTY” (TAIPEI MEDICAL UNIVERSITY, priority 2023, published 2024)", "key": {"[1]": {"tested_on": "female neonate Sprague-Dawley rats", "experiment": "Animal Experiment 1: puberty-related time points (vaginal opening, estrous cycle) in danazol-induced PP rats", "format": "in vivo", "description": "A total of 129 female neonate Sprague-Dawley rats were housed in a humidity (67±1.5%) and temperature (24±2° C.)-controlled housing room of the Taipei Medical University's Laboratory Animal Center with a 12-hour light/dark cycle. They had free access to food and water.\n(§1) Such rats were divided into Control, Danazol, MAG (monoammonium glycyrrhizinate), Danazol+Low-MAG (100 μg/kg/day), Danazol+Medium-MAG (200 μg/kg/day), and Danazol+High-MAG (400 μg/kg/day) groups. The day at birth was termed postnatal day (PND). Litters belonging to danazol-induced PP groups were given a single subcutaneous injection of 300 μg danazol (Sigma-Aldrich) dissolved in 30 μL vehicle composed of propylene glycerol and ethanol (1:1)^[7]. MAG was administered using oral gavage since PND 13. Offspring were weaned onto a normal chow diet and water at PND 21. Body weight was measured daily. The rats were examined daily for the vaginal opening, which was considered as a marker of pubertal onset.\n(§2) MAG was prepared freshly at the beginning of the experiment daily by mixing MAG powder with sterilized water. The volume fed each day was calculated based on the MAG solubility (20 mg/mL), maximum volume tolerated (10 mL/kg/time), intended dose (either 100, 200, or 400 μg/kg/day), and the rat's body weight on that day. Those who were not in the MAG-fed groups were fed with the same volume of sterilized water. MAG doses were chosen based on existing guidelines for safe dosage in humans and previous work in animals. In more detail, the doses were about 5 to 20 times lower than the no-observed-adverse-effect-levels (NOAELs)^[8]. They reflect the normal physiological intake of this sweetener.\nIn this experiment, rats were fed with MAG daily until the end of experiment to maintain the long-term effect of drug tested. Vaginal smear was performed daily until they established three consecutive regular 4- or 5-day-cycles. The day of vaginal opening was the primary outcome. Moreover, the day of the setup of the regular cycle and the day of the establishment of 3 regular cycles were observed as secondary outcomes. The first day of diestrus or metestrus of the first cycle in the 3 consecutive regular estrous cycles was determined as the day of the setup of the regular cycle^[7]. The last day of diestrus of the last cycle in the 3 consecutive regular estrous cycles was determined as the day of establishment of 3 regular cycles^[9].\n(§3) Data were presented as means±standard deviation. Statistical analysis was performed on raw data using one-way analysis of variance (ANOVA). Comparisons among groups were made using the post hoc Tukey-HSD test. Day of vaginal opening, day of setup of regular cycle and day of establishment of 3 regular cycles were analyzed using survival analysis and were compared using the log-rank test. A two-tailed p-value<0.05 was considered significant."}, "[2]": {"tested_on": "female neonate Sprague-Dawley rats", "experiment": "Animal Experiment 2: serum estrogen level on sacrifice day", "format": "in vivo", "excerpt": "In this experiment, rats were raised until the model group (danazol) experienced vaginal opening. At that time, all of the rats were then sacrificed to (1) compare the differences between serum estrogen and luteinizing hormone (LH) levels; (2) compare the mRNA expression of GnRHa, k, Lin28a, Lin28b, let7a, let7b, GPR54, netrin-1, UNC5C, and MKRN3 in the hypothalamus using qPCR; and (3) compare the number of GnRH and kisspeptin neurons in the hypothalamus using immunohistochemistry (IHC).\n(§4) Overnight fasting blood samples for glucose measurement were collected from tail veins two days before sacrifice. Blood samples for LH, estrogen, and other routine laboratory tests were collected from the abdominal aorta when sacrificing. Insulin resistance was then estimated using the triglyceride glucose (TyG) index. […] Also, the fecal samples were collected during these days to analyze gut microbiome, short chain fatty acids (SCFA), and reserve material for fecal microbiota transplantation (FMT) in Experiment 3.\nBlood glucose in rodents was measured using the BioSystem glucose GOD/Peroxidase kit. LH levels were measured using the Enzo LH ELISA kit following the manufacturer's instructions. Samples for estrogen and other routine test were sent to a clinical laboratory."}, "[3]": {"tested_on": "mice (recipient) raised in a specific-pathogen free environment", "experiment": "Animal Experiment 3: fecal microbiota transplantation (FMT), day of vaginal opening", "format": "in vivo", "conditions": "Danazol group, n = 6", "description": "In this experiment, the fecal material collected in Experiment 2 (from donor) was transplanted to mice (recipient) raised in a specific-pathogen free environment. Pathogen free mice model was established by feeding 25 mL of cocktail antibiotics, which contain 50 mg of ampicillin, 50 mg of neomycin, 50 mg of metronidazole, and 25 mg of vancomycin.\nas §3"}, "[4]": {"tested_on": "precocious puberty", "experiment": "Taiwan Puberty Longitudinal Study cohort: sweetener intake and risk of precocious puberty (logistic regression)", "format": "in vivo, human", "conditions": "for OR of precocious puberty: adjusted model", "description": "The Taiwan Puberty Longitudinal Study (TPLS) was a multicenter project involving several hospitals in Taiwan. A total of more than 2,000 female adolescents aged from 6 to 16 years and male adolescents aged from 9 to 17 years had been recruited from pediatric endocrine clinics since 2018. Anthropometric measurements, pubertal stages exams, and interviews about physical activity and sleep quality were conducted quarterly. A comprehensive evaluation, including 24-hour food recall, fasting blood test, and parental interviews about their children's physical activity and sleep quality, was performed annually. Participants were followed up until reaching the late pubertal stages. Thorough market search, a comprehensive and semiquantitative food frequency questionnaire (FFQ), was created for glycyrrhizin intake evaluation in advance. A total of 39 glycyrrhizin-containing food and beverage products were listed in this non-nutritive sweetener food frequency questionnaire ([…])^[1]. The questionnaire was used to screen the level of glycyrrhizin consumption. The interval scale for frequency was measured as never or a number of times per day or per week. Glycyrrhizin consumption was described as the proportion relative to acceptable daily intake (ADI) set by the Joint FAO/WHO Expert Committee on Food Additives[2]. The glycyrrhizin exposure dose in % ADI was finally categorized as tertiles, ranging from T1 (0 to 0.0006), T2 (0.0006 to 0.002) to T3 (>0.002). […] Most of the added sugar came from sugar-sweetened beverages (SSB). The added-sugar exposure dose in % ADI was also categorized as tertiles, ranging from T1 (0 to 0.0013), T2 (0.0013 to 0.0044) to T3 (>0.0044). Precocious puberty (PP) was diagnosed in the presence of the following criteria: secondary sexual characteristics happen before the age of 8 years old, bone age advance greater than 2 years above chronological age, and peak luteinizing hormone (LH)≥5 after the gonadotropin-releasing hormone (GnRH) stimulation test^[3]. Body mass index (BMI) was calculated as weight in kilograms divided by height in meters squared and was then transformed into z-scores (zBMI) based on age- and sex-related reference charts for Taiwanese children^[4]. Participants were asked for their habitual activities, and the amount of time they spend for specific physical activities. The intensity of each activity was described as metabolic equivalent of task (MET)^[5]. Daily metabolic equivalent value (METD) was calculated by summarizing mean of the standard MET of each activity multiplied by the average daily duration. The sleep quality scores, ranging from 0 to 21, were assessed by the Pittsburgh Sleep Quality Index (PSQI) through a self-reported questionnaire^[6]. The total energy intake daily in kcal was estimated by the summary of energy intake from three major macronutrients, including carbohydrates, fat, and proteins. Parental education was assessed by interviews and classified as “senior high school and below,” “college,” or “graduate school and higher.” Odds ratios (ORs) for precocious puberty in participants consumed different doses of glycyrrhizin and added sugar were calculated from generalized linear models with logistic regression using glm( ) function. Models were adjusted for gender, age, zBMI, exercise time, sleep quality, total energy intake, and parental education. Atwo-tailed p-value of <0.05 was considered statistically significant. All analyses were performed using R software (version 4.0.2; RStudio; R Foundation for Statistical Computing, Inc., Boston, MA, USA)."}, "[5]": {"tested_on": "female neonate Sprague-Dawley rats", "experiment": "Body weight, reproductive organ coefficient weights, routine laboratory safety tests and TyG index in rats", "format": "in vivo", "description": "as §1, §4\nOn the days of the vaginal opening in the model group, all animals were exsanguinated with normal saline following anesthesia. After perfusion, the hypothalamus was retrieved. Half of them were fixed in the 10% neutral-buffered formalin for IHC experiments, while the remaining half was embedded in RNAprotect reagent for qPCR experiments later. […]\nBlood glucose in rodents was measured using the BioSystem glucose GOD/Peroxidase kit. LH levels were measured using the Enzo LH ELISA kit following the manufacturer's instructions. […]\nData were presented as means±standard deviation. […] Day of vaginal opening, day of setup of regular cycle and day of establishment of 3 regular cycles were analyzed using survival analysis and were compared using the log-rank test. […]"}, "[6]": {"experiment": "MAG solubility in sterilized water", "format": "physicochemical", "conditions": "MAG powder mixed with sterilized water", "description": "as §2"}, "[7]": {"conditions": "Danazol group (single s.c. 300 μg danazol), n = 6"}, "[8]": {"conditions": "Danazol + High-MAG (400 μg/kg/day, oral gavage), n = 15"}, "[9]": {"conditions": "Danazol + Low-MAG (100 μg/kg/day, oral gavage), n = 8"}, "[10]": {"conditions": "Danazol + Med-MAG (200 μg/kg/day, oral gavage), n = 8"}, "[11]": {"conditions": "MAG group (no danazol), oral gavage since PND 13, n = 5"}}}
{"smiles": "C#C[C@]1(O)CC[C@H]2[C@@H]3CCC4=Cc5oncc5C[C@]4(C)[C@H]3CC[C@@]21C", "note": "[Danazol, danazol, reference compound]", "values": [{"measurement": "Day of establishment of 3 regular cycles", "setting": "[1]; [7]", "value": "38.17 ± 1.17"}, {"measurement": "Day of setup of regular cycle", "setting": "[1]; [7]", "value": "27.67 ± 1.51"}, {"measurement": "Day of vaginal opening", "setting": "[1]; [7]", "value": "23.00 ± 0.00"}, {"measurement": "Serum estrogen level", "setting": "[2]; Danazol group", "value": "trend towards higher values"}, {"measurement": "Day of vaginal opening (PND)", "setting": "[3]", "value": 24.33, "unit": "PND"}]}
{"smiles": "CC1(C)[C@@H](O[C@H]2O[C@H](C(=O)O)[C@@H](O)[C@H](O)[C@H]2O[C@@H]2O[C@H](C(=O)O)[C@@H](O)[C@H](O)[C@H]2O)CC[C@]2(C)[C@H]3C(=O)C=C4[C@@H]5C[C@@](C)(C(=O)O)CC[C@]5(C)CC[C@@]4(C)[C@]3(C)CC[C@@H]12", "note": "[Glycyrrhizin, glycyrrhizin]", "values": [{"measurement": "OR of precocious puberty", "setting": "[4]; Female, exposure tertile T1 vs no intake", "value": 0.479}, {"measurement": "OR of precocious puberty", "setting": "[4]; Female, exposure tertile T2 vs no intake", "value": 0.826}, {"measurement": "OR of precocious puberty", "setting": "[4]; Female, exposure tertile T3 vs no intake", "value": 0.969}, {"measurement": "OR of precocious puberty", "setting": "[4]; Male, exposure tertile T1 vs no intake", "value": 1.384}, {"measurement": "OR of precocious puberty", "setting": "[4]; Male, exposure tertile T2 vs no intake", "value": 0.422}, {"measurement": "OR of precocious puberty", "setting": "[4]; Male, exposure tertile T3 vs no intake", "value": 0.656}, {"measurement": "OR of precocious puberty", "setting": "[4]; Total, exposure tertile T1 (% ADI: glycyrrhizin 0 to 0.0006, added sugar 0 to 0.0013) vs no intake", "value": 0.607}, {"measurement": "OR of precocious puberty", "setting": "[4]; Total, exposure tertile T2 (% ADI: glycyrrhizin 0.0006 to 0.002, added sugar 0.0013 to 0.0044) vs no intake", "value": 0.687}, {"measurement": "OR of precocious puberty", "setting": "[4]; Total, exposure tertile T3 (% ADI: glycyrrhizin >0.002, added sugar >0.0044) vs no intake", "value": 0.857}, {"measurement": "Risk of PP after full adjustment", "setting": "[4]; human cohort, consumption vs no intake", "value": "reduce the risk of PP"}]}
{"smiles": "CC1(C)[C@@H](O[C@H]2O[C@H](C(=O)O)[C@@H](O)[C@H](O)[C@H]2O[C@@H]2O[C@H](C(=O)O)[C@@H](O)[C@H](O)[C@H]2O)CC[C@]2(C)[C@H]3C(=O)C=C4[C@@H]5C[C@@](C)(C(=O)O)CC[C@]5(C)CC[C@@]4(C)[C@]3(C)CC[C@@H]12.N", "note": "[MAG, monoammonium glycyrrhizinate]", "values": [{"measurement": "Day of establishment of 3 regular cycles", "setting": "[1]; [8]", "value": "41.47 ± 2.85"}, {"measurement": "Day of setup of regular cycle", "setting": "[1]; [8]", "value": "28.93 ± 3.62"}, {"measurement": "Day of vaginal opening", "setting": "[1]; [8]", "value": "24.00 ± 2.45"}, {"measurement": "Day of establishment of 3 regular cycles", "setting": "[1]; [9]", "value": "44.13 ± 3.68"}, {"measurement": "Day of setup of regular cycle", "setting": "[1]; [9]", "value": "31.50 ± 3.63"}, {"measurement": "Day of vaginal opening", "setting": "[1]; [9]", "value": "25.13 ± 3.60"}, {"measurement": "Day of establishment of 3 regular cycles", "setting": "[1]; [10]", "value": "45.88 ± 4.19"}, {"measurement": "Day of setup of regular cycle", "setting": "[1]; [10]", "value": "33.38 ± 4.07"}, {"measurement": "Day of vaginal opening", "setting": "[1]; [10]", "value": "27.50 ± 5.01"}, {"measurement": "Day of establishment of 3 regular cycles", "setting": "[1]; [11]", "value": "49.00 ± 2.55"}, {"measurement": "Day of setup of regular cycle", "setting": "[1]; [11]", "value": "37.40 ± 3.44"}, {"measurement": "Day of vaginal opening", "setting": "[1]; [11]", "value": "32.60 ± 2.07"}, {"measurement": "Protection against PP over the whole estrous cycle", "setting": "[1]; danazol-induced PP rats, most obvious effects with Low- and Medium-MAG groups", "value": "protected rats against PP following a dose-dependent manner"}, {"measurement": "Liver enzyme, renal function, albumin, electrolyte panel and lipid profiles", "setting": "[5]; all p>0.05", "value": "no safety concerns"}, {"measurement": "Body weight during puberty", "setting": "[5]; among groups, p=0.448", "value": "no difference"}, {"measurement": "Insulin resistance (TyG index) at the end of the experiment", "setting": "[5]; between groups, High-MAG vs Medium-MAG p=0.048", "value": "did not differ between groups, with the exception of a higher value in High-MAG than that of Medium-MAG"}, {"measurement": "Serum estrogen level", "setting": "[2]; High-MAG group (danazol + 400 μg/kg/day)", "value": "trend towards higher values"}, {"measurement": "MAG solubility", "setting": "[6]", "value": 20, "unit": "mg/mL"}]}
